Laboratory results published in patent US5093359A, “Primycin components and process for the separation of the antibiotic complex” (priority 1984, dated 1992).
Where two headings read alike, the source gives them in different places.

Experiments:
[1] = system: Proteus vulgaris CCM.1799.; experiment: MIC, strain 25; details: 24 h
Experimental: (§1) The antimicrobial activity of the primycin complex and the components thereof is tested on different microorganism strains.
(§2) (Inoculation: 5 × 10^5 /ml, incubation at 37 C.° for

[2] = system: Staphylococcus aureus CCM.2326.; experiment: MIC, strain 4; format: cell-based
[3] = system: Shigella sonnei CCM.1373.; experiment: MIC, strain 26; details: 24 h
Experimental: (§3) The table contains the MIC values (/μg/ml) measured on human pathogenic polyresistant strains.
as §1, §2

[4] = system: Bacillus licheniformis CCM.2205.; experiment: MIC, strain 16; format: cell-based
[5] = system: Bacillus cereus CCM.2010.; experiment: MIC, strain 14; format: cell-based
[6] = system: Staphylococcus aureus Smith; experiment: MIC, strain 8; format: cell-based
[7] = system: Staphylococcus aureus DSM.20231; experiment: MIC, strain 2; format: cell-based
[8] = system: Bacillus subtilis ATTC.6633.; experiment: MIC, strain 13; format: cell-based
[9] = system: Micrococcus flavus ATCC.10240.; experiment: MIC, strain 19; format: cell-based
[10] = system: Streptococcus disgalactiae ATTC.9926; experiment: MIC, strain 12; format: cell-based
[11] = system: Micrococcus luteus DSM.20030.; experiment: MIC, strain 20; format: cell-based
[12] = system: Bacillus licheniformis CCM.2182.; experiment: MIC, strain 15; format: cell-based
[13] = system: Staphylococcus aureus CCM.2317.; experiment: MIC, strain 3; format: cell-based
[14] = system: Pseudomonas fluorescens CCM.2115.; experiment: MIC, strain 23; details: 24 h
Experimental: as §1, §2

[15] = system: Bacillus subtilis CCM.1718.; experiment: MIC, strain 17; format: cell-based
[16] = system: Streptococcus agalactiae CCM.5153.; experiment: MIC, strain 10; format: cell-based
[17] = system: Staphylococcus epidermidis CCM.2271; experiment: MIC, strain 7; format: cell-based
[18] = system: Salmonella typhimurium CCM.5445.; experiment: MIC, strain 27; details: Salmonella enterica, 24 h
Experimental: as §3, §1, §2

[19] = system: Staphylococcus aureus CCM.2514; experiment: MIC, strain 5; format: cell-based
[20] = system: Streptococcus faecalis CCM.1875.; experiment: MIC, strain 9; format: cell-based; details: Enterococcus faecalis
[21] = system: Staphylococcus aureus CCM.885.; experiment: MIC, strain 1; format: cell-based
[22] = system: Streptococcus agalactiae CCM.5534.; experiment: MIC, strain 11; format: cell-based
[23] = system: Pseudomonas acidoverans CCM.283; experiment: MIC, strain 24; details: CCM.283, 24 h
Experimental: as §1, §2

[24] = system: Escherichia coli DSM.30038.; experiment: MIC, strain 28; details: 24 h
Experimental: as §3, §1, §2

[25] = system: Pseudomonas aeruginosa CCM.1960.; experiment: MIC, strain 22; details: 24 h
Experimental: as §1, §2

[26] = system: Sporosarcina ureae DSM.317; experiment: MIC, strain 21; details: DSM.317, 24 h
Experimental: as §1, §2

[27] = system: Staphylococcus aureus CCM.2515.; experiment: MIC, strain 6; format: cell-based
[28] = system: Listeria monocytogenes CCM.5576.; experiment: MIC, strain 18; format: cell-based
[29] = strain 4, Table O, 24 hours, read-out: MIC
[30] = strain 4, Tables I-XIII, 25 hours, read-out: MIC
[31] = strain 16, Table O, 24 hours, read-out: MIC
[32] = strain 16, Tables I-XIII, 25 hours, read-out: MIC
[33] = 24 h, strain 14, Table O, 24 hours, read-out: MIC
[34] = strain 8, Table O, 24 hours, read-out: MIC
[35] = strain 8, Tables I-XIII, 25 hours, read-out: MIC
[36] = Staphylococcus aureus, DSM.20231, 24 h, strain 2, Table O, 24 hours, read-out: MIC
[37] = 24 h, strain 13, Table O, 24 hours, read-out: MIC
[38] = strain 19, Table O, 24 hours, read-out: MIC
[39] = strain 19, Tables I-XIII, 25 hours, read-out: MIC
[40] = ATTC.9926, 24 h, strain 12, Table O, 24 hours
[41] = strain 20, Table O, 24 hours, read-out: MIC
[42] = strain 20, Tables I-XIII, 25 hours, read-out: MIC
[43] = strain 15, Table O, 24 hours, read-out: MIC
[44] = strain 15, Tables I-XIII, 25 hours, read-out: MIC
[45] = strain 3, Table O, 24 hours, read-out: MIC
[46] = strain 3, Tables I-XIII, 25 hours, read-out: MIC
[47] = 24 h, strain 17, Table O, 24 hours, read-out: MIC
[48] = strain 10, Table O, 24 hours, read-out: MIC
[49] = strain 10, Tables I-XIII, 25 hours, read-out: MIC
[50] = CCM.2271, strain 7, Table O, 24 hours, read-out: MIC
[51] = CCM.2271, strain 7, Tables I-XIII, 25 hours, read-out: MIC
[52] = CCM.2514, strain 5, Table O, 24 hours, read-out: MIC
[53] = CCM.2514, strain 5, Tables I-XIII, 25 hours, read-out: MIC
[54] = strain 9, Table O, 24 hours, read-out: MIC
[55] = strain 9, Tables I-XIII, 25 hours, read-out: MIC
[56] = strain 1, Table O, 24 hours, read-out: MIC
[57] = strain 1, Tables I-XIII, 25 hours, read-out: MIC
[58] = Streptococcus agalactiae, CCM.5534., 24 h, strain 11, Table O, 24 hours, read-out: MIC
[59] = Streptococcus agalactiae, CCM.5534., 25 h, strain 11, Tables I-XIII, 25 hours, read-out: MIC
[60] = strain 6, Table O, 24 hours, read-out: MIC
[61] = strain 6, Tables I-XIII, 25 hours, read-out: MIC
[62] = strain 18, Table O, 24 hours, read-out: MIC
[63] = strain 18, Tables I-XIII, 25 hours, read-out: MIC
[64] = ATTC.9926, 25 h, strain 12, Tables I-XIII, 25 hours

Measured: MIC

CCCCC1C(=O)OC(C(C)C(O)CCCNC(=N)N)C(C)C=C(C)CCCCC(O)CC(O)CC(O)CC(O)CC(O)CC=C(C)C(O)CCCC(O)CCCC(O)CCC(C)C1O (stereo not drawn) [B1, hydropricin]
2.5 µg/mL: [10]; [40] | [20]; [54] | [20]; [55]
0.05 µg/mL: [9]; [38] | [9]; [39]
0.075 µg/mL: [11]; [41] | [11]; [42]
1 µg/mL: [22]; [58] | [22]; [59]
25 µg/mL: [14] | [23] | [25]
0.5 µg/mL: [6]; [34] | [6]; [35] | [16]; [48] | [16]; [49] | [21]; [56] | [21]; [57]
0.025 µg/mL: [26]
0.1 µg/mL: [7]; [36] | [8]; [37] | [13]; [45] | [13]; [46] | [19]; [52] | [19]; [53] | [27]; [60] | [27]; [61]
50 µg/mL: [1] | [3] | [18] | [24]
0.25 µg/mL: [2]; [29] | [2]; [30] | [4]; [31] | [4]; [32] | [5]; [33] | [12]; [43] | [12]; [44] | [15]; [47] | [15]; 25 h, strain 17, Tables I-XIII, 25 hours, read-out: MIC | [17]; [50] | [17]; [51] | [28]; [62] | [28]; [63]

CCCCC1C(=O)OC(C(C)C(O)CCCNC(=N)N)C(C)C=C(C)CCCCC(O)CC(O)CC(O)CC(O)CC(O)C(OC2OC(CO)C(O)C2O)C=C(C)C(O)CCCC(O)CCCC(O)CCC(C)C1O (stereo not drawn) [A1, chinopricin]
25 µg/mL: [14] | [23] | [25]
0.075 µg/mL: [9]; 24 h | [9]; 25 h
0.5 µg/mL: [28]; 24 h | [28]; 25 h
1 µg/mL: [22]; Streptococcus agalactiae, CCM.5534., 24 h | [22]; Streptococcus agalactiae, CCM.5534., 25 h
0.025 µg/mL: [26]
50 µg/mL: [1] | [3] | [18] | [24]
2.5 µg/mL: [10]; [40] | [10]; [64] | [20]; 24 h | [20]; 25 h
0.75 µg/mL: [16]; 24 h | [16]; 25 h | [17]; CCM.2271, 24 h | [17]; CCM.2271, 25 h
0.05 µg/mL: [7]; Staphylococcus aureus, DSM.20231, 24 h | [7]; Staphylococcus aureus, DSM.20231, 25 h | [11]; 24 h | [11]; 25 h
0.25 µg/mL: [2]; 24 h | [2]; 25 h | [4]; 24 h | [4]; 25 h | [5]; 24 h | [5]; 25 h | [6]; 24 h | [6]; 25 h | [8]; 24 h | [8]; 25 h | [12]; 24 h | [12]; 25 h | [13]; 24 h | [13]; 25 h | [15]; 24 h | [15]; 25 h | [19]; CCM.2514, 24 h | [19]; CCM.2514, 25 h | [21]; 24 h | [21]; 25 h | [27]; 24 h | [27]; 25 h

CCCCC1C(=O)OC(C(C)C(O)CCCNC(=N)N)C(C)C=C(C)CCCCC(O)CC(O)CC(O)CC(O)CC(O)C(O)C=C(C)C(O)CCCC(O)CCCC(O)CCC(C)C1O (stereo not drawn) [C1, oxypricin]
0.075 µg/mL: [16]; [48] | [16]; [49] | [21]; [56] | [21]; [57] | [28]; [62] | [28]; [63]
0.75 µg/mL: [20]; [54] | [20]; [55]
0.25 µg/mL: [22]; [58] | [22]; [59]
0.01 µg/mL: [9]; [38] | [9]; [39] | [11]; [41] | [11]; [42] | [26]
0.025 µg/mL: [4]; [31] | [4]; [32] | [5]; [33] | [5]; 25 h, strain 14, Tables I-XIII, 25 hours, read-out: MIC | [8]; [37] | [8]; 25 h, strain 13, Tables I-XIII, 25 hours, read-out: MIC | [12]; [43] | [12]; [44] | [17]; [50] | [17]; [51] | [27]; [60] | [27]; [61]
0.1 µg/mL: [7]; strain 2, Tables I-XIII, 25 hours
25 µg/mL: [14] | [23] | [25]
50 µg/mL: [1] | [3] | [18] | [24]
0.05 µg/mL: [2]; [29] | [2]; [30] | [6]; [34] | [6]; [35] | [7]; [36] | [7]; Staphylococcus aureus, DSM.20231, 25 h, strain 2, Tables I-XIII, 25 hours, read-out: MIC | [13]; [45] | [13]; [46] | [15]; [47] | [19]; [52] | [19]; [53]
0.2 µg/mL: [22]; strain 11, Tables I-XIII, 25 hours
0.5 µg/mL: [10]; [40] | [10]; [64]
